Legend:
Assay type in all cases: cell-based
[1] = tested on: bovine sperm; test: Motility of stained unsorted bovine sperm held in Caprogen-type fresh media (fluorescent CASA), Example 14
From the text: This is with “conventional” (unsorted) sperm stained with Hoechst 33342 (to facilitate CASA using fluorescence).
The fresh extender is a media similar to Caprogen, which contains 5% (v/v) egg yolk and is bubbled with nitrogen gas prior to diluting sperm.
In Caprogen with glycerol, the concentration of glycine is 135 millimolar and the concentration of glycerol is 135 millimolar. Control Media 1 was made with these same concentrations, while the balance of test media (Media 2-7) were made with the following concentrations as shown in Table 13:
Fresh Bovine Ejaculates of 5 bulls were diluted to 160 million sperm per mL into Staining TALP, combined with Hoechst 33342 DNA stain, incubated 60 minutes at 34° C. (as standard staining for XY sperm sorting). Once stained, the sperm in TALP were diluted in the related media to a new concentration of 15 million sperm per mL and placed into 0.25 cc straws, sealed and held horizontal at 18° C. for 4 days. On each day, one straw of sperm was warmed for 15 minutes at 34° C. and the contents of about 200 microliters from the straw were combined with 100 microliters of fresh media identical to the specified test media used to hold the sperm. Sperm were analyzed on fluorescent CASA (Hamilton Thorne IVOS II) using UV illumination.

[2] = tested on: bovine sperm; test: Post-thaw visual motility of sperm sorted with different sheath fluids, Example 17 second test; conditions: up to 60 mM erythritol in sheath fluid; standard post-sort handling
Method: Standard bovine sperm sorting uses sheath fluid comprising 68 mM Fructose, 80 mM Citrate and 243 mM TRIS at pH 6.80 and osmolarity 290-300 mOsm. […] Combining 88 volumes of TRIS A with 12 volumes of pure glycerol creates a solution called TRIS B (The “B Fraction”). In the case of standard sperm sorting, the “B Fraction” may optionally contain no egg yolk and may be called “[…] Fraction” still containing 12 volumes of pure glycerol. […] The pH of all media was 6.70-6.75 and the osmolarity was 290-305 mOsm. The same two bulls were used for each of two tests and were measured for post-thaw quality at the same time. The first test was done with unstained non-sorted sperm similar to standard “conventional freezing.” The second test was done using different sheath fluids for sorting sperm. The second test compared a CONTROL (standard) sheath fluid to three alternate sheath fluids (H-J). After sorting all samples were handled in the identical manner to standard sperm sorting. A 3.5 mL volume of catch fluid (TRIS A) is placed in each catch tube and sorted sperm are sorted into the catch tube to a volume of 20 mL. That volume of fluid is then cooled for 90 minutes to about 4-6° C. then an equal volume of cold […] Fraction is added. […]

[3] = tested on: bovine sperm; test: Post-thaw visual motility of unstained non-sorted sperm frozen in erythritol test media, Example 17 first test
Method: Standard bovine sperm sorting uses sheath fluid comprising 68 mM Fructose, 80 mM Citrate and 243 mM TRIS at pH 6.80 and osmolarity 290-300 mOsm. […] Combining 88 volumes of TRIS A with 12 volumes of pure glycerol creates a solution called TRIS B (The “B Fraction”). In the case of standard sperm sorting, the “B Fraction” may optionally contain no egg yolk and may be called “[…] Fraction” still containing 12 volumes of pure glycerol. […] The pH of all media was 6.70-6.75 and the osmolarity was 290-305 mOsm. The same two bulls were used for each of two tests and were measured for post-thaw quality at the same time. The first test was done with unstained non-sorted sperm similar to standard “conventional freezing.” The second test was done using different sheath fluids for sorting sperm. The first test compared control (standard media) to 7 alternate media (A-G) with compositions including various amounts of erythritol and in some cases glycine. 10 milliliters of sperm of each bull at a concentration of 100 million sperm per milliliter was cooled in standard TRIS A (control media) over 90 minutes from room temperature to about 4-6° C. Samples were then divided into 1 milliliter aliquots and 0.5 mL of cold TEST-B media was added, held for 15 minutes before an additional 0.5 mL of TEST-B media was added. […]

[4] = tested on: sorted bovine sperm; test: Motility of sorted bovine sperm stored in CaproGLY or CaproERY at 17° C. (visual and CASA), Example 15; conditions: holding times longer than 4 days; erythritol versus glycerol in Caprogen
Method: Standard Caprogen (with glycerol) is referred to as “CaproGLY” and erythritol containing Caprogen is referred to as “CaproERY.”
Preparation of media in volume of 100 mL: 95 mL of the respective media working solution is combined with 5 mL of egg yolk, stirred for 15 minutes, held overnight at 4° C., centrifuged for 60 minutes at 1200 G in 50 mL Falcon Tubes (clarified). On day of use, nitrogen gas is bubbled through the clarified media for 15 minutes.
Sorting of the sperm to be held in the two fresh extenders: Fresh Ejaculates of 3 Jersey bulls are bulk sorted according to standard proprietary sex sorting methods disclosed in other patents. In brief, sperm are washed, concentrated and resuspended in a Hepes buffered TRIS Citrate extender to normalize concentration to about […] and pH about 7.15. Each 1 mL of staining comprises: 0.150 mL of sperm solution (about 160 million sperm), 64 nanomoles of Hoechst 33342 in 8 microliters, […] of staining TALP and 100 nanomoles of FD&C food dye. […]
The formulated sperm are filled into 0.25 cc straws, sealed and stored horizontally at 17° C. for up to nine days. On the specified test days, a straw is opened and checked for visual motility (counted by eye by technician using microscope analysis on heated stage), CASA total motility and CASA progressive motility using a Hamilton Thorne IVOS system. […]

SMILES | support of sperm motility (in words) ([1]; up to 4 days, 135 millimolar glycerol, or its replacement with erythritol, in Caprogen fresh media) | support of bovine sperm motility (in words) ([1]; as much as 400 millimolar Erythritol in fresh bovine extender, 4 day period) | effect on sperm quality when present in sheath fluid (in words) [2] | erythritol concentration giving optimal freezing results [3] [mM] | preserving quality as seen in motility (in words) [4]
OCC(O)CO [glycerol, reference compound] | beneficial for supporting sperm motility |  |  |  | 
OC[C@@H](O)[C@@H](O)CO [erythritol] |  | good support of bovine sperm motility | beneficial to sperm quality | 15 to 50 | better at preserving quality as seen in motility

— US11279913B2, “Sperm processing method, apparatus and related media compositions” (Inguran, LLC, priority 2017, dated 2022)
